Assay II/I ratio and normalized assay II/I ratio data for 9 compounds are collected here from PubChem BioAssay AID686955 (ICCB-Longwood Screening Facility, Harvard Medical School, 2013).

This assay relates to NF-kB luciferase reporter cells, IL-1b + dexamethasone, 18 h. The assay can be described thus: glucocorticoid sensitivity changers, NF-kB reporter – cell-based, luciferase, IL-1B plus dexamethasone, confirmation (AID 686955). As to conditions: for assay II/I ratio: 4 uM; for normalized assay II/I ratio: at 1 µM.

Active and inactive are the calls of the source.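 Rule for the calls: active = compounds that shift the dex/IL-1 ratio, either lowering it activators or doubling it inhibitors, at 1 µM (some results past the limit were not filed as active); inactive = the rest.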

Take `Cn1cc(C2=C(c3cccc(NCC(O)CO)c3)C(=O)NC2=O)c2cc(Cl)ccc21` (stereo unspecified): the normalized assay II/I ratio is 1.93 (inactive). Moreover, the assay II/I ratio (dexamethasone conc 1) came to 0.664. For the same compound, the assay II/I ratio (dexamethasone conc 2) came to 0.47. For the same compound, the normalized assay II/I ratio (dexamethasone concentration 2) amounted to 1.97.

As for `O=C(NC1NNC2NNC(c3cccnc3)CC21)C1CC1` (stereo unspecified), the normalized assay II/I ratio is 1.91 (inactive). Further, under “dexamethasone conc 1”, the assay II/I ratio is 0.597. Besides, the assay II/I ratio (dexamethasone conc 2) is 0.43. Besides, for the setting “dexamethasone concentration 2”, the normalized assay II/I ratio was 1.94.

For `Cn1cc(C2=C(c3cccc(OCC(O)CO)c3)C(=O)NC2=O)c2ccccc21` (stereo unspecified), the normalized assay II/I ratio was 1.68 (inactive). Moreover, the assay II/I ratio (dexamethasone conc 1) was 0.553. Moreover, under “dexamethasone conc 2”, the assay II/I ratio was 0.398. The normalized assay II/I ratio (dexamethasone concentration 2) came to 1.68.

For `Cc1[nH]nc2c1N=C(c1ccccc1F)c1cc(C#N)ccc1N2`, the normalized assay II/I ratio is 1.87 (inactive). Also, the assay II/I ratio (dexamethasone conc 1) is 0.66. For the same compound, the assay II/I ratio (dexamethasone conc 2) is 0.386. Besides, where the note is “dexamethasone concentration 2”, the normalized assay II/I ratio came to 2.07.

On to `O=C(Nc1n[nH]c2nc(-c3ccc(O)cc3)c(Br)cc12)C1CC1`, for which the normalized assay II/I ratio is 2.27. The assay II/I ratio (dexamethasone conc 1) came out at 0.935. Moreover, the assay II/I ratio (dexamethasone conc 2) was 0.684. Further, the normalized assay II/I ratio (dexamethasone concentration 2) was determined as 2.53.

Turning to `Cn1cc(C2=C(c3ccccc3[N+](=O)[O-])C(=O)NC2=O)c2ccccc21`, the normalized assay II/I ratio is 2.39. Moreover, the assay II/I ratio (dexamethasone conc 1) stood at 0.733. Where the note is “dexamethasone conc 2”, the assay II/I ratio was 0.646. The normalized assay II/I ratio (dexamethasone concentration 2) turned out to be 2.62.

In the case of `COc1cccc(-n2ncc3c(N/N=C/c4ccc(S(C)(=O)=O)cc4)ncnc32)c1`, the normalized assay II/I ratio was 1.18 (inactive). The assay II/I ratio (dexamethasone conc 1) is 0.326. The assay II/I ratio (dexamethasone conc 2) worked out at 0.242. For the same compound, the normalized assay II/I ratio (dexamethasone concentration 2) came to 1.17.

On to `COc1cccc(-n2ncc3c(N/N=C/c4ccncc4)ncnc32)c1`, for which the normalized assay II/I ratio is 1.47 (inactive). Further, the assay II/I ratio (dexamethasone conc 1) stood at 0.504. The assay II/I ratio (dexamethasone conc 2) was 0.362. Moreover, the normalized assay II/I ratio (dexamethasone concentration 2) came out at 1.44.

`COc1ccc(O)c(C(=O)c2ccc(C(=O)O[C@H]3CCCNC[C@@H]3NC(=O)c3ccncc3)cc2)c1F`: the normalized assay II/I ratio was 0.93 (inactive). Also, the assay II/I ratio (dexamethasone conc 1) was 0.85. For the same compound, the assay II/I ratio (dexamethasone conc 2) is 0.659. For the same compound, the normalized assay II/I ratio (dexamethasone concentration 2) was found to be 0.89.
